# Measured values reported in patent US10829473B2, “Modulators of the cystic fibrosis transmembrane conductance regulator protein and methods of use” (AbbVie Overseas S.Á.R.L., priority 2017, dated 2020).
# Read-outs that look alike come from different tables or passages of the source.
# Biological target: T1, F508delCFTR (Homo sapiens, UniProt P13569, DEL508-508)
# T1 construct: expressed in transfected cells; host or cells: CFBE41o- human lung derived epithelial cells (CFBE41o-F508delCFTR-HRP), doxycycline-inducible
# T1 sequence (P13569 with tags, fused parts or gaps DEL508-508): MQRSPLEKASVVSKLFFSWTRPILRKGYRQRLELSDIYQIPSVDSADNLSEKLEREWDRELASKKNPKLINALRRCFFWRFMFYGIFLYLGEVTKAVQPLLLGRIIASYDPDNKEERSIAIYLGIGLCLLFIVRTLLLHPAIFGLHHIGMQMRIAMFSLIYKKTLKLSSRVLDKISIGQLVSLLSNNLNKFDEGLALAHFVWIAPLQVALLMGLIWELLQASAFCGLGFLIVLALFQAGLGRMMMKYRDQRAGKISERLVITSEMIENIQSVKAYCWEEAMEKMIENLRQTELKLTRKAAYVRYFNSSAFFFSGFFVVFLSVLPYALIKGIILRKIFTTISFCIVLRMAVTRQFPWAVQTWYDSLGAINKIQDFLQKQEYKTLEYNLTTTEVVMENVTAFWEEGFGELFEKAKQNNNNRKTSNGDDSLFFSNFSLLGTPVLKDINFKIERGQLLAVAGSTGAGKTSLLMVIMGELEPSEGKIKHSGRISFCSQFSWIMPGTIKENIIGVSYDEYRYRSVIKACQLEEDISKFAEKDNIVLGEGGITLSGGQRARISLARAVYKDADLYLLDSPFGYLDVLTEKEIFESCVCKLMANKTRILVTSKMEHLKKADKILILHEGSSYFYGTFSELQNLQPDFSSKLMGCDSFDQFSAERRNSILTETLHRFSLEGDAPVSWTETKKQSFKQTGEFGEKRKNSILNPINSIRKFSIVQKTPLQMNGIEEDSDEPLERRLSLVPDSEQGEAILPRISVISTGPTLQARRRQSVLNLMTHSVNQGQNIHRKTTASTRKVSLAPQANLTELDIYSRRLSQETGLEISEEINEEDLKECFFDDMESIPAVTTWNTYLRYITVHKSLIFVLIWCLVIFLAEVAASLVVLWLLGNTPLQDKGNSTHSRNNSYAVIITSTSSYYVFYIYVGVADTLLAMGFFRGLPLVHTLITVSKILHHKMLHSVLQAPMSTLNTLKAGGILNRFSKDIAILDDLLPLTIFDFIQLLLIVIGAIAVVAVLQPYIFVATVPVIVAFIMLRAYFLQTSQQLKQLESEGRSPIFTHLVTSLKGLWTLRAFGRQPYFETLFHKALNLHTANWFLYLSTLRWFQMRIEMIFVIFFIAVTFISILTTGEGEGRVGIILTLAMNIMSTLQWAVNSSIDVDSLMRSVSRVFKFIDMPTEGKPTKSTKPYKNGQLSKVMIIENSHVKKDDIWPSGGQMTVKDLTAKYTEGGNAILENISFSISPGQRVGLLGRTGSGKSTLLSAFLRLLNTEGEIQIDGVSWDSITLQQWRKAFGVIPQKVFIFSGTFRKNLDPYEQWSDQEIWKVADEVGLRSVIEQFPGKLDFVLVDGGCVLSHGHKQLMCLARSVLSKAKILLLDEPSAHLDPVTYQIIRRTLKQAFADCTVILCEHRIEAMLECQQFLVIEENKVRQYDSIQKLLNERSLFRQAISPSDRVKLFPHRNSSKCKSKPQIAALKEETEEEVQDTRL
# Test: Cell Surface Expression-Horse Radish Peroxidase (CSE-HRP) Assay;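 on EC50 (with co-corrector): co-corrector chromenyl benzoic acid corrector at 2 or 3 µM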
# Type: cell-based
# Settings: for Maximum % activity (with co-corrector) / Emax: maximum at any tested concentration; for Emax: read-out: Maximum % activity (without co-corrector)
# Method: A cellular assay for measuring the F508delCFTR cell surface expression after correction with test compounds either without or with a co-corrector (2 μM of 3-[(2R,4R)-4-({[1-(2,2-difluoro-1,3-benzodioxol-5-yl)cyclopropyl]carbonyl}amino)-7-methoxy-3,4-dihydro-2H-chromen-2-yl]benzoic acid), was developed in human lung derived epithelial cell line (CFBE4lo−) (Veit G et al, (2012) Mol Biol Cell. 23(21): 4188-4202). The development was achieved by expressing the F508delCFTR mutation along with a horseradish peroxidase (HRP) in the fourth exofacial loop, and then measuring the HRP activity using luminescence readout from these cells, CFBE410-F508delCFTR-HRP, that were incubated overnight with the test corrector compounds, either without or with the co-corrector. For this primary assay, the CFBE410-F508delCFTR-HRP cells were plated in 384-well plates (Greiner Bio-one; Cat 781080) at 4,000 cells/well along with 0.5 μg/mL doxycycline to induce the F508delCFTR-HRP expression and further incubated at 37° C., 5% CO2 for 68-72 hours. The test compounds were then added either without or with a co-corrector at the required concentrations and further incubated for 18-24 hours at 33° C. The highest concentration tested was 20 μM or 30 μM (GI-1 to GIII-36) with an 8-point concentration response curve using a 3-fold dilution in both the test compound without or with the co-corrector. Three replicate plates were run to determine one EC50. All plates contained negative controls (dimethyl sulfoxide, DMSO) and positive control (2 μM or 3 μM (GI-1 to GIII-36) of 3-[(2R,4R)-4-({[1-(2,2-difluoro-1,3-benzodioxol-5-yl)cyclopropyl]carbonyl}amino)-7-methoxy-3,4-dihydro-2H-chromen-2-yl]benzoic acid) as well as on-plate concentration response of the positive control. Post incubation, the plates were washed 5× times with Dulbecco's phosphate buffered saline (DPBS), followed by the addition of the HRP substrate, luminol (50 4), and measuring the HRP activity using luminescence readout on EnVision® Multilabel Plate Reader (Perkin Elmer; product number 2104-0010). The raw counts from the experiment were analyzed using Accelrys® Assay Explorer v3.3.
# Z′ greater than 0.5 was used as passing quality control criteria for the plates.
# The Z′ is defined as: 1−[3*SDPositve Control+3*SDNegative Control/Absolute(MeanPositive Control−MeanNegative Control)] wherein “SD” is standard deviation.
# The % activity measured at each of the 8 test concentrations of the test compound added either without or with a co-corrector (2 μM or 3 μM (GI-1 to GIII-36) of 3-[(2R,4R)-4-({[1-(2,2-difluoro-1,3-benzodioxol-5-yl)cyclopropyl]carbonyl}amino)-7-methoxy-3,4-dihydro-2H-chromen-2-yl]benzoic acid) was normalized to the on-plate positive control using the following formulae: % activity (Test compound without co-corrector)=[(test compound without co-corrector response DMSO response)/(positive control response DMSO response)]*100 % activity (Test compound with co-corrector)=[(test compound with co-corrector response DMSO response)/(positive control response DMSO response)]*100
# The maximum % activity achieved for the test compound either without or with a co-corrector at any tested concentration is presented in Table 6 along with the respective EC50's calculated using the following general sigmoidal curve with variable Hill slope equation (described as Model 42 in the Accelrys® Assay Explorer v3.3 software): y=(a−d)/(1+(x/c)b)+d
# General sigmoidal curve with concentration, response, top, bottom, EC50 and Hill slope. This model describes a sigmoidal curve with an adjustable baseline, a. The equation can be used to fit curves where response is either increasing or decreasing with respect to the independent variable, “x”.
# “x” is a concentration of drug under test.
# “a” is the maximum response, and “d” is the minimum response
# “c” is the inflection point (EGO for the curve. That is, “y” is halfway between the lower and upper asymptotes when x=c.
# “b” is the slope-factor or Hill coefficient. […]
# [1] = test compound with co-corrector
# [2] = test compound with co-corrector, read-out: EC50 (with co-corrector)
# [3] = test compound without co-corrector
# [4] = test compound without co-corrector, read-out: EC50 (without co-corrector)
Maximum % activity (with co-corrector) [1],EC50 [2],Emax [3],EC50 [4],SMILES
+++ (≥350),< 3 µM,> 150%,< 3 µM,"COc1cnc(OCC(C)C)c(C2(C(=O)NS(=O)(=O)c3cccc4[nH]ccc34)CC2)c1 [Example GI-78, N-(1H-indole-4-sulfonyl)-1-[5-methoxy-2-(2-methylpropoxy)pyridin-3-yl]cyclopropane-1-carboxamide]"
+++ (≥350),< 3 µM,> 150%,< 3 µM,"COc1cnc(OCC(C)C)c(C2(C(=O)NS(=O)(=O)c3cccc4nc(C)ccc34)CC2)c1 [Example GI-79, 1-[5-methoxy-2-(2-methylpropoxy)pyridin-3-yl]-N-(2-methylquinoline-5-sulfonyl)cyclopropane-1-carboxamide]"
+++ (≥350),< 3 µM,> 150%,< 3 µM,"Cc1ccc(C2(C(=O)NS(=O)(=O)c3cccc4ncccc34)CC2)c(OC(C)C)n1 [Example GI-80, 1-{6-methyl-2-[(propan-2-yl)oxy]pyridin-3-yl}-N-(quinoline-5-sulfonyl)cyclopropane-1-carboxamide]"
+++ (≥350),< 3 µM,> 150%,< 3 µM,"Cc1ccc(C2(C(=O)NS(=O)(=O)c3cccc4nc(C)ccc34)CC2)c(OC(C)C)n1 [Example GI-81, 1-{6-methyl-2-[(propan-2-yl)oxy]pyridin-3-yl}-N-(2-methylquinoline-5-sulfonyl)cyclopropane-1-carboxamide]"
+++ (≥350),< 3 µM,> 150%,< 3 µM,"Cc1ccc(C2(C(=O)NS(=O)(=O)c3cccc4[nH]ccc34)CC2)c(OC(C)C)n1 [Example GI-82, N-(1H-indole-4-sulfonyl)-1-{6-methyl-2-[(propan-2-yl)oxy]pyridin-3-yl}cyclopropane-1-carboxamide]"

# Second part, the compound before the results:
SMILES,Maximum % activity (with co-corrector) [1],EC50 [2],Emax [3],EC50 [4]
"CC(C)Oc1ncc(N(C)C)cc1C1(C(=O)NS(=O)(=O)c2cccc3[nH]ccc23)CC1 [Example GI-73, 1-{5-(dimethylamino)-2-[(propan-2-yl)oxy]pyridin-3-yl}-N-(1H-indole-4-sulfonyl)cyclopropane-1-carboxamide]",+++ (≥350),< 3 µM,> 150%,3 to 10 µM
"COc1cnc(OC(C)C)c(C2(C(=O)NS(=O)(=O)c3cccc4ncccc34)CC2)c1 [Example GI-74, 1-{5-methoxy-2-[(propan-2-yl)oxy]pyridin-3-yl}-N-(quinoline-5-sulfonyl)cyclopropane-1-carboxamide]",+++ (≥350),< 3 µM,> 150%,3 to 10 µM
"COc1cnc(OC(C)C)c(C2(C(=O)NS(=O)(=O)c3cccc4[nH]ccc34)CC2)c1 [Example GI-75, N-(1H-indole-4-sulfonyl)-1-{5-methoxy-2-[(propan-2-yl)oxy]pyridin-3-yl}cyclopropane-1-carboxamide]",+++ (≥350),< 3 µM,> 150%,3 to 10 µM
"COc1cnc(OC(C)C)c(C2(C(=O)NS(=O)(=O)c3cccc4nc(C)ccc34)CC2)c1 [Example GI-76, 1-{5-methoxy-2-[(propan-2-yl)oxy]pyridin-3-yl}-N-(2-methylquinoline-5-sulfonyl)cyclopropane-1-carboxamide]",+++ (≥350),< 3 µM,> 150%,< 3 µM
"COc1cnc(OCC(C)C)c(C2(C(=O)NS(=O)(=O)c3cccc4ncccc34)CC2)c1 [Example GI-77, 1-[5-methoxy-2-(2-methylpropoxy)pyridin-3-yl]-N-(quinoline-5-sulfonyl)cyclopropane-1-carboxamide]",+++ (≥350),< 3 µM,> 150%,< 3 µM
